Test results: the supplement of paper PMC10307832

Tests used:
Test in all cases: relative viability (nuclei count vs DMSO), 5 days (fraction); higher = more cells survive
NCI-H1355 = test system: NCI-H1355
How it was run: (§1)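 Dosing by pin tool came one day after lung cancer cell lines were seeded in 1536-well plates, using either one drug or a fixed anchor-drug dose plus five library-drug doses (not always all listed) in √10 steps. After 5 days, nuclei were counted on 4× images. Relative viability is treated-well nuclei count divided by vehicle-well nuclei count, and values are medians of duplicate plates.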

HCC-78 = test system: HCC-78
How it was run: as §1

NCI-H2342 = test system: NCI-H2342
How it was run: as §1

LCLC-97TM1 = test system: LCLC-97TM1
How it was run: as §1

NCI-H1975 = test system: NCI-H1975
How it was run: as §1

SK-MES-1 = test system: SK-MES-1
How it was run: as §1

PC-3 [JPC-3] = test system: PC-3 [JPC-3]
How it was run: as §1

LC-2-ad = test system: LC-2-ad
How it was run: as §1

NCI-H358 = test system: NCI-H358
How it was run: as §1

NCI-H650 = test system: NCI-H650
How it was run: as §1

NCI-H838 = test system: NCI-H838
How it was run: as §1

LK-2 = test system: LK-2
How it was run: as §1

BEN = test system: BEN
How it was run: as §1

LU99A = test system: LU99A
How it was run: as §1

LXF-289 = test system: LXF-289
How it was run: as §1

NCI-H1651 = test system: NCI-H1651
How it was run: as §1

NCI-H1944 = test system: NCI-H1944
How it was run: as §1

NCI-H2087 = test system: NCI-H2087
How it was run: as §1

ChaGo-K-1 = test system: ChaGo-K-1
How it was run: as §1

NCI-H661 = test system: NCI-H661
How it was run: as §1

NCI-H1666 = test system: NCI-H1666
How it was run: as §1

SMILES: O=c1cc(N2CCOCC2)oc2c(-c3cccc4c3sc3ccccc34)cccc12 + CC(=O)c1c(C)c2cnc(Nc3ccc(N4CCNCC4)cn3)nc2n(C2CCCC2)c1=O [Palbociclib] (partner 0.5 µM)
- relative viability (NCI-H1355; first compound 0.01 µM): 0.424
- relative viability (NCI-H1355; first compound 0.03162 µM): 0.403
- relative viability (NCI-H1355; first compound 0.1 µM): 0.412
- relative viability (NCI-H1355; first compound 0.3162 µM): 0.39
- relative viability (NCI-H1355; first compound 1 µM): 0.392
- relative viability (HCC-78; first compound 0.01 µM): 0.493
- relative viability (HCC-78; first compound 0.03162 µM): 0.482
- relative viability (HCC-78; first compound 0.1 µM): 0.437
- relative viability (HCC-78; first compound 0.3162 µM): 0.5
- relative viability (HCC-78; first compound 1 µM): 0.446
- relative viability (NCI-H2342; first compound 0.01 µM): 0.539
- relative viability (NCI-H2342; first compound 0.03162 µM): 0.502
- relative viability (NCI-H2342; first compound 0.1 µM): 0.537
- relative viability (NCI-H2342; first compound 0.3162 µM): 0.529
- relative viability (NCI-H2342; first compound 1 µM): 0.508
- relative viability (LCLC-97TM1; first compound 0.01 µM): 0.218
- relative viability (LCLC-97TM1; first compound 0.03162 µM): 0.194
- relative viability (LCLC-97TM1; first compound 0.1 µM): 0.241
- relative viability (LCLC-97TM1; first compound 0.3162 µM): 0.21
- relative viability (LCLC-97TM1; first compound 1 µM): 0.218
- relative viability (NCI-H1975; first compound 0.01 µM): 0.61
- relative viability (NCI-H1975; first compound 0.03162 µM): 0.609
- relative viability (NCI-H1975; first compound 0.1 µM): 0.626
- relative viability (NCI-H1975; first compound 0.3162 µM): 0.529
- relative viability (NCI-H1975; first compound 1 µM): 0.591
- relative viability (SK-MES-1; first compound 0.01 µM): 0.274
- relative viability (SK-MES-1; first compound 0.03162 µM): 0.343
- relative viability (SK-MES-1; first compound 0.1 µM): 0.359
- relative viability (SK-MES-1; first compound 0.3162 µM): 0.341
- relative viability (SK-MES-1; first compound 1 µM): 0.295
- relative viability (PC-3 [JPC-3]; first compound 0.01 µM): 0.548
- relative viability (PC-3 [JPC-3]; first compound 0.03162 µM): 0.519
- relative viability (PC-3 [JPC-3]; first compound 0.1 µM): 0.306
- relative viability (PC-3 [JPC-3]; first compound 0.3162 µM): 0.557
- relative viability (PC-3 [JPC-3]; first compound 1 µM): 0.511
- relative viability (LC-2-ad; first compound 0.01 µM): 0.504
- relative viability (LC-2-ad; first compound 0.03162 µM): 0.5
- relative viability (LC-2-ad; first compound 0.1 µM): 0.572
- relative viability (LC-2-ad; first compound 0.3162 µM): 0.493
- relative viability (LC-2-ad; first compound 1 µM): 0.554
- relative viability (NCI-H358; first compound 0.01 µM): 0.163
- relative viability (NCI-H358; first compound 0.03162 µM): 0.127
- relative viability (NCI-H358; first compound 0.1 µM): 0.132
- relative viability (NCI-H358; first compound 0.3162 µM): 0.133
- relative viability (NCI-H358; first compound 1 µM): 0.126
- relative viability (NCI-H650; first compound 0.01 µM): 0.348
- relative viability (NCI-H650; first compound 0.03162 µM): 0.383
- relative viability (NCI-H650; first compound 0.3162 µM): 0.356
- relative viability (NCI-H650; first compound 1 µM): 0.347
- relative viability (NCI-H838; first compound 0.01 µM): 0.26
- relative viability (NCI-H838; first compound 0.03162 µM): 0.182
- relative viability (NCI-H838; first compound 0.1 µM): 0.222
- relative viability (NCI-H838; first compound 0.3162 µM): 0.228
- relative viability (NCI-H838; first compound 1 µM): 0.202
- relative viability (LK-2; first compound 0.01 µM): 0.83
- relative viability (LK-2; first compound 0.03162 µM): 0.768
- relative viability (LK-2; first compound 0.1 µM): 0.587
- relative viability (LK-2; first compound 0.3162 µM): 0.638
- relative viability (LK-2; first compound 1 µM): 0.77
- relative viability (BEN; first compound 0.01 µM): 0.427
- relative viability (BEN; first compound 0.03162 µM): 0.476
- relative viability (BEN; first compound 0.1 µM): 0.476
- relative viability (BEN; first compound 0.3162 µM): 0.514
- relative viability (BEN; first compound 1 µM): 0.506
- relative viability (LU99A; first compound 0.01 µM): 0.393
- relative viability (LU99A; first compound 0.03162 µM): 0.414
- relative viability (LU99A; first compound 0.1 µM): 0.414
- relative viability (LU99A; first compound 0.3162 µM): 0.379
- relative viability (LU99A; first compound 1 µM): 0.488
- relative viability (LXF-289; first compound 0.01 µM): 0.631
- relative viability (LXF-289; first compound 0.03162 µM): 0.59
- relative viability (LXF-289; first compound 0.1 µM): 0.593
- relative viability (LXF-289; first compound 0.3162 µM): 0.583
- relative viability (LXF-289; first compound 1 µM): 0.595
- relative viability (NCI-H1651; first compound 0.01 µM): 0.528
- relative viability (NCI-H1651; first compound 0.03162 µM): 0.486
- relative viability (NCI-H1651; first compound 0.1 µM): 0.555
- relative viability (NCI-H1651; first compound 0.3162 µM): 0.555
- relative viability (NCI-H1651; first compound 1 µM): 0.513
- relative viability (NCI-H1944; first compound 0.01 µM): 0.331
- relative viability (NCI-H1944; first compound 0.03162 µM): 0.332
- relative viability (NCI-H1944; first compound 0.1 µM): 0.363
- relative viability (NCI-H1944; first compound 0.3162 µM): 0.338
- relative viability (NCI-H1944; first compound 1 µM): 0.32
- relative viability (NCI-H2087; first compound 0.01 µM): 0.218
- relative viability (NCI-H2087; first compound 0.03162 µM): 0.245
- relative viability (NCI-H2087; first compound 0.1 µM): 0.221
- relative viability (NCI-H2087; first compound 0.3162 µM): 0.229
- relative viability (NCI-H2087; first compound 1 µM): 0.217
- relative viability (ChaGo-K-1; first compound 0.01 µM): 0.884
- relative viability (ChaGo-K-1; first compound 0.03162 µM): 0.91
- relative viability (ChaGo-K-1; first compound 0.1 µM): 0.964
- relative viability (ChaGo-K-1; first compound 0.3162 µM): 0.947
- relative viability (ChaGo-K-1; first compound 1 µM): 0.954
- relative viability (NCI-H661; first compound 0.01 µM): 0.417
- relative viability (NCI-H661; first compound 0.03162 µM): 0.41
- relative viability (NCI-H661; first compound 0.1 µM): 0.375
- relative viability (NCI-H661; first compound 0.3162 µM): 0.416
- relative viability (NCI-H661; first compound 1 µM): 0.398
- relative viability (NCI-H1666; first compound 0.01 µM): 0.663
- relative viability (NCI-H1666; first compound 0.03162 µM): 0.593
- relative viability (NCI-H1666; first compound 0.1 µM): 0.709
- relative viability (NCI-H1666; first compound 0.3162 µM): 0.651
- relative viability (NCI-H1666; first compound 1 µM): 0.643
